Measured values reported in ChEMBL document CHEMBL3301361, “Experimental in vitro DMPK and physicochemical data on a set of publicly disclosed compounds”.

Tests used:
[1] = physchem; details: octan-1-ol/water, pH 7.4, LogD7.4
[2] = in vitro; details: human, plasma, PPB

logD [1]	fraction unbound at 5 h [2]	SMILES
3.45	0.0594	C[C@H](Nc1nc(Nc2ncc(C#N)s2)cc(N2CCOCC2)n1)c1ccc(F)cn1
1.08	0.179	NC(=O)c1cnc(N[C@H]2CCCNC2)c2cc(Br)sc12
0.96	0.0183	O=c1cc(O)oc2c1c(=O)n(-c1ccccc1)c1ccccc21
-0.65	0.232	COc1nccnc1NS(=O)(=O)c1ccc(N)cc1
1.23	0.563	CNC(=O)c1snnc1-c1ccccc1
3.31	0.0606	O=C1CN(C(=O)c2ccccc2)C(c2ccccc2)c2cc(Cl)ccc2N1 (stereo not drawn)
3.2	0.0245	CC(=O)c1cn(Cc2ccccc2)c(=O)n(Cc2ccc(F)cc2)c1=O
3.1	0.0428	O=C(CCS(=O)(=O)c1ccc(Br)cc1)NCc1ccc(F)cc1
3.1	0.0139	CNC(=O)c1cc(C(=O)c2ccc(Cl)cc2)c(Br)[nH]1
4.1	0.0111	Cc1cccc(-c2nc3cc(Cl)ccc3[nH]2)n1
3.02	0.107	CCOc1cc2nnc(C(N)=O)c(Nc3cc(C)ccc3F)c2cc1N1CCN(C)CC1
0.44	0.0069	CC[C@H]1CN(Cc2cc(Cl)ccc2OCC(=O)O)CCN1S(=O)(=O)c1ccccc1
3.9	0.0035	CCN(CC)S(=O)(=O)c1ccc(-c2nnc(SCC(=O)N3CCc4ccccc43)o2)cc1
3.5	0.0031	c1ccc2[nH]c(CCCc3nc4ccccc4[nH]3)nc2c1
-0.28	0.051	Cc1ccc(S(=O)(=O)N2N=Cc3oc(C)cc3B2O)cc1
-0.84	0.666	CSc1ccc(N2C(N)=NC(N)=NC2(C)C)cc1
3.11	0.0532	Cc1cc(Nc2nc(N[C@@H](C)c3ccc(F)cn3)c(C#N)cc2F)n[nH]1
3.68	0.0447	C[C@H]1O[C@@H](n2cnc3c(N)nc(OCC4CC45CC5)nc32)[C@H](O)[C@H]1Cl (stereo partly drawn)
3.47	0.0149	Cc1ccc(NC(=O)c2ccnc(N3CCOCC3)c2)cc1NC(=O)c1ccc(OCc2ccccn2)cc1
0.83	0.465	COc1ccc2ncc(=O)n(CCN3CCC(NCc4cc5c(cn4)OCCO5)CC3)c2n1
0.66	0.0418	COc1ccc2c(c1)N(CCN1CCC(NCc3ccc4c(n3)NC(=O)CO4)CC1)C(=O)CC2
0.5	0.258	COc1ccc2c(c1)N(CCN1CCC(NCc3ccc4c(n3)NC(=O)CO4)CC1)C(=O)OC2
1.31	0.309	COc1ccc2ccc(=O)n(CCN3CCC(NCc4cc5c(cn4)OCCO5)CC3)c2c1
0.2	0.276	COc1ncc2ccc(=O)n(CCN3CCC(NCc4cc5c(cn4)OCCO5)CC3)c2n1
1.16	0.314	COc1ccc2ccc(=O)n(CCN3CCC(NCc4cc5c(cn4)OCCO5)CC3)c2n1

logD [1]	fraction unbound at 5 h [2]	SMILES
0.54	0.0127	Cc1c(Sc2ccc(Cl)cc2)c2cc(S(C)(=O)=O)ccc2n1CC(=O)O
0.8	0.454	Cc1ccc(S(=O)(=O)Nc2c(C(=O)N[C@@H](C)C(C)(C)C)c(C)nn2C2CCN(C)CC2)cc1
0.82	0.661	CN[C@@H](C)C(=O)N[C@H](C(=O)N[C@H]1CCN(C(=O)c2ccccc2)C1)C1CCCCC1
0.81	0.671	CN[C@@H](C)C(=O)N[C@H](C(=O)N[C@H]1CCN(C(=O)Cc2ccccc2)C1)C1CCCCC1
0.87	0.552	CN[C@@H](C)C(=O)N[C@H](C(=O)N[C@H]1CCCN(C(=O)c2ccccc2)C1)C1CCCCC1
1.32	0.376	CN[C@@H](C)C(=O)N[C@H](C(=O)N[C@H]1CCCN(C(=O)Cc2ccccc2)C1)C1CCCCC1
1.1	0.179	COc1cc(OC)c(S(=O)(=O)N(C)c2ccccc2)cc1NC(C)=O
3.94	0.016	O=C1[C@@H]2[C@@H]3CC[C@@H](C3)[C@@H]2C(=O)N1[C@H]1CC[C@H](C(=O)Nc2cccc3cccnc23)CC1
3	0.0007	CCOc1ccccc1-c1ccc(-c2nc3ccncc3c(O)c2C#N)cc1
3.28	0.0262	COc1ccc(-c2nc3c(NCCCNC(C)=O)c(Br)cnc3[nH]2)cc1
1	0.415	O=C(c1cccc(Cc2n[nH]c(=O)c3ccccc23)c1)N1CCOCC1
1.27	0.0836	COc1cccc(/C=C2\SC(=O)NC2=O)c1N1CCC[C@@H](N)C1
3.44	0.0191	CC(=O)Nc1ccc2cnn(-c3cc(NC4CC4)n4ncc(C#N)c4n3)c2c1
3.3	0.0251	CC(=O)Nc1ccc2c(c1)N(c1cc(NC3CC3)n3ncc(C#N)c3n1)CC2
3.09	0.0191	N#Cc1cnn2c(NC3CC3)cc(-n3ccc4ccc(CO)cc43)nc12
-0.34	0.0606	Cc1ccc2c(c1)c(-c1ccnc3c(S(C)(=O)=O)cccc13)c(C)n2CC(=O)O
0.11	0.208	N#Cc1ccc2ccc(=O)n(CCN3CC[C@H](NCc4ccc5c(n4)NC(=O)CO5)[C@H](O)C3)c2c1
0.39	0.137	COc1ccc2ncc(=O)n(CCN3CC[C@H](NCc4ccc5c(n4)NC(=O)CO5)[C@H](O)C3)c2c1
0.37	0.0532	COc1ccc2ncc(=O)n(CCN3CC[C@@H](NCc4ccc5c(n4)NC(=O)CO5)[C@@H](O)C3)c2c1
0.32	0.535	CO[C@H]1CN(CCn2c(=O)ccc3ccc(C#N)cc32)CC[C@H]1NCc1ccc2c(n1)NC(=O)CO2
1.05	0.16	CO[C@H]1CN(CCn2c(=O)ccc3ccc(C#N)cc32)CC[C@@H]1NCc1cc2c(cn1)OCCO2
0.81	0.276	CO[C@@H]1CN(CCn2c(=O)ccc3ccc(C#N)cc32)CC[C@H]1NCc1ccc2c(n1)NC(=O)CO2
1.25	0.166	COc1ccc2ncc(=O)n(CCN3CC[C@H](NCc4cc5c(cn4)OCCO5)[C@@H](OC)C3)c2c1
0.83	0.244	COc1ccc2ncc(=O)n(CCN3CC[C@@H](NCc4ccc5c(n4)NC(=O)CO5)[C@@H](F)C3)c2c1
1.2	0.236	CC(C)(C)OC(=O)NCCCSC[C@H]1O[C@@H](n2cnc3c(N)ncnc32)[C@H](O)[C@@H]1O

logD [1]	fraction unbound at 5 h [2]	SMILES
0.22	0.0268	NC(=O)c1cncc(-c2ccc([C@H]3CC[C@H](CC(=O)O)CC3)cc2)c1
0.22	0.0179	CC[C@H](c1ccc(C(=O)O)c(Oc2cccc(Cl)c2)c1)N1CCC[C@H](n2cc(C)c(=O)[nH]c2=O)C1
0.22	0.0383	CC[C@@H](c1ccc(C(=O)O)c(Oc2cccc(Cl)c2)c1)N1CCC[C@H](n2cc(C)c(=O)[nH]c2=O)C1
-0.51	0.0191	Cc1cn([C@H]2CCCN(Cc3ccc(C(=O)O)c(Oc4cccc(Br)c4)c3)C2)c(=O)[nH]c1=O
-0.38	0.0293	Cc1cn([C@H]2CCCN(Cc3ccc(C(=O)O)c(Oc4cccc(C(F)(F)F)c4)c3)C2)c(=O)[nH]c1=O
3.14	0.0335	Cc1c(Cl)ccc(OC2CCN(C[C@H](O)CNC(=O)c3c[nH]c(=O)cc3C(F)(F)F)CC2)c1Cl
3.48	0.0647	N#Cc1cccc(C(=O)NC[C@@H](O)CN2CCC(Oc3ccc(Cl)c(Cl)c3)CC2)c1
3.12	0.0032	COc1cc(C(=O)NC[C@@H](O)CN2CCC(Oc3ccc(Cl)c(Cl)c3)CC2)ccc1N
-1.28	0.04	Cc1cn([C@H]2CCCN(S(=O)(=O)c3ccc(C(=O)O)c(Oc4cccc(Cl)c4)c3)C2)c(=O)[nH]c1=O
3.14	0.002	COCCNC(=O)c1ccc(Nc2ncc3cc(-c4ccncc4OC)ccc3n2)cc1
3.04	0.006	CC(=O)Nc1ccc(Nc2ncc3cc(-c4ccncc4)ccc3n2)cc1
3.34	0.0383	C[C@@H](NC(=O)C1CCCCN1C)c1ccc(Nc2ncc3cc(-c4ccncc4)ccc3n2)cc1 (stereo partly drawn)
3.45	0.0191	CC(=O)N[C@H](C)c1ccc(Nc2ncc3cc(-c4ccncc4)c(C)cc3n2)cc1
3.9	0.0086	CC(C)C[C@H](CO)Nc1nc(SCc2cccc(C#N)c2)nc2nc(N)sc12
3.22	0.0229	C[C@H](CO)Nc1nc(SCc2cccc(F)c2F)nc2[nH]c(N)nc12
3.12	0.0457	C[C@H](CO)Nc1nc(SCc2ccccc2)nc2nc(N)sc12
0.2	0.0647	COc1ccc(-c2nc(N3CCOCC3)nc(O)c2C#N)cc1
4.25	0.0142	COc1ccc(OC)c(CNc2[nH]nc3ccnc(Oc4ccccc4)c23)c1
3.4	0.0081	COc1cc2ncc(C(N)=O)c(Nc3ccccc3C)c2cc1OC
1.4	0.431	c1ccc2c(c1)CCN(c1ccncc1)C2
3.23	0.0179	CN1CCN(c2ccc3ncc(C(N)=O)c(Nc4ccc(Cl)cc4Cl)c3c2)CC1
0.92	0.349	CN1CCN(C(=O)c2cccc(Cc3n[nH]c(=O)c4ccccc34)c2)CC1
3.3	0.0391	Cc1c[nH]c(-c2cc(NC(=O)c3ccc(C(F)(F)F)nc3C)ccc2Cl)n1
3.2	0.0343	Nc1ncnc2nc(-c3ccc(N4CCOCC4)nc3)cc(-c3cccc(Br)c3)c12
